Assays:
[1] = target: T1, RNase H of HBV polymerase (HBV-RNase H) (Hepatitis B virus ayw/France/Tiollais/1979, UniProt P03156); experiment: inhibitory effects against RNase H activity of HBV polymerase; format: biochemical; conditions: read-out: Inhibitory effect of HBV-RNase H
T1 construct: amylose/maltose step implies MBP fusion
Procedure: Experiment 2: The inhibitory effects against RNase H activity of HBV polymerase.
1) Expression of the RNase H domain derived from human HBV polymerase
E.coli NM 522 was transformed by the expression vector pMRH respectively and the transformants were cultured in LB medium at 37° C., overnight. These growing cultures were diluted 1:100, inoculated into a glucose rich medium and incubated until OD600 reached 0.5. Then IPTG (isopropylthiogalactoside) was added into the medium of which the fine concentration was 0.5 mM. The above growing cultures were incubated again at 20° C. for 16 hours and the RNase H domain was expressed.
The above cultured broth was centrifuged for 10 minutes at 3,000 rpm and the cell pellet was washed with 10 ml of TNE column buffer (10 mN Tris-Cl, pH 8.0, 200 mM NaCl, 1 mM EDTA), and resuspended in 10 ml of TNE column buffer. The cells were freezed and thawed 4 times repeatedly, and then disrupted by sonication for 10 seconds 3 times. The crude extract prepared in the above process was centrifuged for 30 minutes at 13,000 rpm, 4° C. and the supernatant was separated. The above process was repeated 2 times and then the supernatant passed the amylose resin. The resin was washed by using column buffer with 50 times of resin volume, and the RNase H domain was eluted by using buffer containing 10 mM maltose.
In addition, the RNase H domain produced from the expression vector pMRH was purified by using histidine tag affinity column, because RNase H has a histidine tag at the C-terminus. The resin (Ni-NTA, QIAGEN) used in the histidine tag affinity column was activated by using sonication buffer (50 mM sodium phosphate, pH 8.0, 300 mM sodium chloride) and 4~5 ml of the activated resin was charged in the glass tube whose diameter was about 1 cm. The protein sample obtained from above description passed the resin at the 0.1 ml/ min flow rate and the column was washed by using washing buffer with the 100~200 times volume of protein sample (50 mM sodium phosphate, pH 6.0, 300 mM sodium chloride, 10% glycerol). The recombinant protein was eluted by washing the column with concentration gradient of 0.01~0.5 M imidazole.
As a result, the active RNase H domain was separated from the histidine tag affinity column at 30 mM concentration of imidazole. The purified RNase H domain was mixed with 50% glycerol for storage at -20° C. after the removal of imidazole from it and employed fol the screening of HBV inhibitors.
2) Preparation of the substrate of the RNase H enzyme
In order to identify the RNase H activity, RNA/DNA complex which can be used as a substrate of the RNase H enzyme was prepared by performing in vitro transcription with […].
3) Screening of active inhibitors against RNase H
The RNase H activity was measured by using recombinant RNase H enzyme and radiolabled RNA/DNA hybrid. In order to measure the RNase H activity, 1 μg of RNase H enzyme and test compound were mixed with buffer solution containing 40 mM Tris-Cl (pH 8.0), 4 mM magnesium chloride, 40 mM potassium chloride and 2 mM DTT. The mixture was pretreated on ice for 10 minutes. After pretreatment is completed, RNA/DNA hybrid was added to incubate at 37° C. for 3 hours. After the reaction was stopped, 7.5 M ammonium acetate in a volume of 1/2 and ethanol in a 3-fold volume were added. The above reaction mixture was incubated at -20° C. for more than 2 hours and centrifuged for 15 minutes at 4° C., 13,000 rpm. The supernatant was obtained and the radioactive signal of supernatant was measured by scintillation counter.
As a control, water was added instead of test compound and the inhibitory activity was calculated to compare with the control, when the radioactivity intensity on each test compound, was obtained.

[2] = target: T2, HBV polymerase reverse transcriptase (HBV-RT) (Hepatitis B virus genotype D subtype ayw, UniProt P03156); experiment: inhibitory activity against HBV polymerase in vitro (reverse transcriptase activity); format: biochemical; conditions: read-out: Inhibitory effect of HBV-RT
T2 construct: made in house; host or cells: E. coli
Description: Experiment 1: The inhibitory activity against HBV polymerase in vitro.
Recently, the inventors of the present invention have produced a recombinant HBV polymerase that is expressed from E.coli transformant, measured its enzyme activity and filed patent applications thereof [Korean Patent Application Nos. 94-3918, 96-33998 and 96-63255].
The inventions have established a method of measuring the reverse transcriptase activity of HBV polymerase in vitro. The fundamental principle is the same as the ELISA method, and after reacting the substrate with biotin- and DIG-modified nucleotide, a method of recognizing the polymerized substrate as anti-DIG antibody with peroxidase was used. […] and 20 μ of test compound were mixed and reacted at 14~30° C. for 18~24 hours. Then, the inhibitory effect of test compound against reverse trascriptase activity in the HBV polymerase was examined, compared with the results of control tests without the test compound.

[3] = target: T3, HIV reverse transcriptase (HIV-RT) (Human immunodeficiency virus type 1 group M subtype B, UniProt P04585); experiment: in vitro inhibition test against HIV reverse transcriptase; format: biochemical, HIV (AIDS virus); conditions: read-out: Inhibitory effect of HIV-RT
T3 construct: purchased Boehringer Mannheim
Procedure: Experiment 3: The in vitro inhibition test against HIV reverse transcriptase
The inhibitory activity in vitro was measured using a non-radioactive reverse transcriptase assay Kit (Boehringer Mannheim).
At first, 20 μl(40 ng) HIV-RT was added to the wells coated with streptavidin and with the addition of 20 μl, reaction mixture containing template/primer hybrid poly(A)/oligo(dT)15 and DIG-(digoxigenin)-dUTP, biotin-dUTP and TTP, 20 μl test compound was added and reacted at 37° C. for 1 hour. The control without test compound was used for the comparison of related activity. Since DNA containing nucleotide labeled with digoxigenin and biotine was prepared by the action of HIV-RT, it was combined with streptavidin coated at the bottom of the wells. After the reaction was completed, remaining impurities were removed by washing each well with 20 μl buffer solution (pH 7.0) for 30 seconds 5 times and with the addition of 200 μl anti-DIG-POD antibody, the mixture was reacted at 37° C. for 1 hour. For the removal of remaining impurities again, the reacting solution was washed with a buffer solution and with the addition of 200μl ABTS™ each, a substrate of POD(peroxidase), the solution was reacted at room temperature for 30 minutes. The absorbance was read by ELISA reader at 405 nm for the assay of reverse transcriptase activity and its inhibition activity.

T1 sequence (P03156 680-832): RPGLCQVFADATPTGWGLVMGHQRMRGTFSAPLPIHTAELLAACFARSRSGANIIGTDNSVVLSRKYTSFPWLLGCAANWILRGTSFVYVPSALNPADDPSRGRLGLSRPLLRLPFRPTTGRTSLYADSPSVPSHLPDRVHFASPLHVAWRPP
T2 sequence (P03156 whole entry): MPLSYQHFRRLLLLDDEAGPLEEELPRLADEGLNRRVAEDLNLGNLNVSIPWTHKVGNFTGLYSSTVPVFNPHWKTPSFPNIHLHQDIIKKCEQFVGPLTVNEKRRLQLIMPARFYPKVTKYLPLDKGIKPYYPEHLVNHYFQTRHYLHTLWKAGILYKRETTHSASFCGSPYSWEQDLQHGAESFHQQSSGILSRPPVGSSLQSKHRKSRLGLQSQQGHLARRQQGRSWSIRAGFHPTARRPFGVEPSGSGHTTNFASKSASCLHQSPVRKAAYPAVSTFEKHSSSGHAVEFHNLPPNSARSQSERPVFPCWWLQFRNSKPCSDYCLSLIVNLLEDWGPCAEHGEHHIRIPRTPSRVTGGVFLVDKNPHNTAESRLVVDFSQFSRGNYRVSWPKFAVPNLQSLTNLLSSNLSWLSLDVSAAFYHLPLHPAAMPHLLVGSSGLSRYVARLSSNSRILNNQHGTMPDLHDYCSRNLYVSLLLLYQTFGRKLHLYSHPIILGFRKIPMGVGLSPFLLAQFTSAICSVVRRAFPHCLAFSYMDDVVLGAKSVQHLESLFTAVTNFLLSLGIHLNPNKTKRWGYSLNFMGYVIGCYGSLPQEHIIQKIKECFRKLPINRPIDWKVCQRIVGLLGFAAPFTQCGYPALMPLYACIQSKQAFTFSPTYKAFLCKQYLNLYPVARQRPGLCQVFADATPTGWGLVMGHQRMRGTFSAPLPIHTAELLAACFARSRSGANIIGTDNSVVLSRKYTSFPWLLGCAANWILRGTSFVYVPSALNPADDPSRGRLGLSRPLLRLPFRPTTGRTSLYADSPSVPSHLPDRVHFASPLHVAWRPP

## CC(C)Nc1cccnc1N1CCN(C(=O)c2ccc(C(=O)N(C)CC3OCCO3)cc2)CC1 [Compound No. 71, 1-[N-[(1,3-Dioxolan-2-yl)methyl]-N-methylcarbamoyl]-4-[1-[3-(isopropylamino)-2-pyridyl]piperazin-4-yl-carbonyl]benzene]
[1]; 0.1 μg/ml
  inhibition at 0.1 µg/mL: 56%
[1]; 1 μg/ml
  inhibition at 1 µg/mL: 62%
[2]; 0.1 μg/ml
  inhibition at 0.1 µg/mL: 35%
[2]; 1 μg/ml
  inhibition at 1 µg/mL: 51%
[3]; 0.1 μg/ml
  inhibition at 0.1 µg/mL: 68%
[3]; 1 μg/ml
  inhibition at 1 µg/mL: 70%

Source: US5922871A, “Terephthalamide derivatives” (Dongwha Pharmaceutical Ind. Co., Ltd., priority 1997, dated 1999)
